The results in this text go back to ChEMBL document CHEMBL1137972, “Synthesis and anti-HCMV activity of 1-acyl-beta-lactams and 1-acylazetidines derived from phenylalanine” (Bioorg Med Chem Lett, 2004).

In assay [1] the test system is HEL. Put plainly: Effective concentration against human cytomegalovirus AD-169 strain in HEL cell cultures. Type of assay: functional, cell-based.
Assay [2] concerns HEL. Put plainly: Cytotoxic concentration required to reduce HEL cell growth by 50%. Format: functional. The following applies: Homo sapiens.
Assay [3] relates to HEL. Nature of the assay: Effective concentration against human cytomegalovirus Davies strain in HEL cell cultures. Type of assay: functional, cell-based.

Each structure is given as a SMILES string.

Consider `C[C@H](NC(=O)N1C(=O)C[C@]1(Cc1ccccc1)C(=O)OC(C)(C)C)c1ccccc1`, for which the figures for the EC50 in the assay on HEL [1] and with HEL [3] were 32 µM and 33 µM, respectively. In the assay on HEL [2], this molecule gave a half-maximal cytotoxic concentration (CC50) of 164 µM.
For `C[C@H](NC(=O)N1C(=O)C[C@]1(Cc1ccccc1)C(=O)O)c1ccccc1` the same measures were more than 200 µM, more than 200 µM and more than 200 µM.
On the same counts, the results for `C[C@@H](NC(=O)N1C(=O)C[C@]1(Cc1ccccc1)C(=O)O)c1ccccc1` are more than 50 µM, more than 50 µM and more than 200 µM.
On the same counts, the results for `CC(C)(C)OC(=O)C1(Cc2ccccc2)CC(=O)N1C(=O)Nc1ccccc1` (centres undefined) are 50 µM, 50 µM and 118 µM.
As to `Nc1ccn(C[C@@H](CO)OCP(=O)(O)O)c(=O)n1` [CIDOFOVIR], the half-maximal effective concentration (EC50) came out at 0.16 µM in the assay with HEL [1] and 0.5 µM with HEL [3]. The same molecule gave a CC50 with HEL [2] of more than 150 µM.
For `C[C@@H](NC(=O)N1C(=O)C[C@]1(Cc1ccccc1)C(=O)OC(C)(C)C)c1ccccc1` the same measures were 100 µM, 107 µM and more than 200 µM.
As for `C[C@H](NC(=O)N1C(=O)C[C@@]1(Cc1ccccc1)C(=O)O)c1ccccc1`, the EC50 in the assay with HEL [1] and in the assay with HEL [3] was more than 50 µM throughout. The molecule also yielded a 50% cytotoxic concentration (CC50) with HEL [2] of 187 µM.
As to `Nc1nc2c(ncn2COC(CO)CO)c(=O)[nH]1` [GANCICLOVIR], the EC50 in the assay on HEL [1] stood at 0.9 µM; in the assay with HEL [3], 0.8 µM. Besides, in the assay on HEL [2], the CC50 was more than 150 µM.
Take `O=C1C[C@H](Cc2ccccc2)N1C(=O)NCc1ccccc1`: a half-maximal response with HEL [1] (EC50) required 53 µM. Also, in the assay on HEL [2], the cytotoxic concentration (CC50) was more than 750 µM.
With `CC(C)(C)OC(=O)N1C(=O)CC1(Cc1ccccc1)C(=O)OC(C)(C)C` (centres undefined), the EC50 in the assay with HEL [1] and with HEL [3] was more than 200 µM throughout. For the same molecule, the cytotoxic concentration (CC50) in the assay on HEL [2] is more than 200 µM.
Turning to `C[C@H](NC(=O)N1C(=O)C[C@@]1(Cc1ccccc1)C(=O)OC(C)(C)C)c1ccccc1`, the concentration giving a half-maximal response (EC50) with HEL [1] and in the assay on HEL [3] was 35 µM in each case. The CC50 with HEL [2] stood at 184 µM.
For the molecule `C[C@@H](NC(=O)N1C(=O)C[C@@]1(Cc1ccccc1)C(=O)OC(C)(C)C)c1ccccc1`, the figures for the EC50 with HEL [1] and in the assay with HEL [3] were 32 µM and 33 µM, respectively. For the same molecule, half-maximal cytotoxicity in the assay with HEL [2] (CC50) was put at 70 µM.
For `CC(C)(C)OC(=O)C1(Cc2ccccc2)CC(=O)N1C(=O)OCc1ccccc1` (centres undefined), the EC50 in the assay with HEL [1] stood at 11 µM; in the assay with HEL [3], 13 µM. The CC50 in the assay with HEL [2] came out at 36 µM.
For `CC(C)(C)OC(=O)C1(Cc2ccccc2)CCN1C(=O)OCc1ccccc1` (centres undefined) the same measures were 0.74 µM, 0.62 µM and 34 µM.
For `C[C@@H](NC(=O)N1C(=O)C[C@@]1(Cc1ccccc1)C(=O)O)c1ccccc1` the same measures were more than 200 µM, more than 200 µM and more than 200 µM.
